Experiments:
[1] = test system: acne-patient-derived P. acnes (patient strains 1-3); test: Anti-inflammatory effect of PepA against inflammation caused by patient-derived P. acnes in mice; assay type: in vivo; conditions: for P (inflammatory area compared with control group given PBS): 5 days after injection
Experimental: (§1) FIG. 3 is a drawing schematically illustrating the procedure for examining the anti-inflammatory effect. […] Then, P. acnes was intradermically injected into the abdominal midlines of the mice, and the inflammatory areas were measured 5 days after the injection (Day “23” in FIG. 3). Each group consisted of 10 mice. As Comparative Examples, there were prepared a group of mice to which PBS without PepA was administered and a group of mice to which PepB or PepC was administered instead of PepA, and P. acnes was injected into the groups similarly.
The anti-inflammatory effect of PepA was examined by the same procedure as in Example 5 except that bacterial cells of P. acnes to be injected into mice were the acne-patient-derived bacterial cells of P. acnes which were isolated in Example 6.
FIG. 7 is a graph showing the result of intradermically injecting, after immunization by PepA, the patient strains 1-3 (P1-P. acnes to P3-P. acnes) to the abdominal midlines of mice and measuring inflammatory areas of the mice 5 days after the injection.

P. acnes (ATCC6919) = test: Anti-inflammatory effect of peptides against intradermic inflammation caused by P. acnes in mice; assay type: in vivo, Balb/c mice; conditions: for anti-inflammatory effect against inflammation caused by P. acnes: vs PBS
Experimental: Living bacterial cells of P. acnes were put in a deaerated physiological saline while keeping an anaerobic condition to prepare a suspension with the number of the living bacterial cells of P. acnes of 5×10^7 cells/ml, 1×10^8 cells/ml, or 5×10^8 cells/ml. The anaerobic condition was kept by spraying a nitrogen gas. The number of the living bacterial cells of P. acnes was calculated based on the assumption that OD measurement value of 0.98-1.02 at 550 nm measured by a spectrophotometer corresponds to 5×10^8 cells/ml, with reference to Ramstad S. et al., Photochem. Photobiol. Sci., 2006, 5, 66-72.
50 μl of the prepared suspension of P. acnes was intradermically injected into shaven abdominal midlines, neck portions, lumbar dorsal portions, tail root dorsal portions, and auricles of male Balb/c mice (9-10 weeks old). The inflammatory areas (major axis×minor axis: mm^2) at individual portions to which the suspension was injected intradermically were measured at predetermined times. Each group consisted of five individuals.
Accordingly, the anti-inflammatory effects of individual peptides were determined under the same conditions, i.e. by intradermically injecting 50 μl of P. acnes (5×10^8 cells/ml) into the abdominal midline and measuring the inflammatory area (mm^2) five days after the injection. FIG. 3 illustrates the procedure for examining the anti-inflammatory effect.
as §1
The anti-inflammatory effects of individual peptides were examined using an inflammation causing system under the same conditions as in Example 4 except that the peptides to be administered to mice before injection of P. acnes were changed from PepA, PepB, and PepC to PepA and PepD.

[2] = Example 4, 40 μg/50 μl intradermal, three times, area 5 days after P. acnes injection into abdominal midline
[3] = Example 4, 40 μg/50 μl intradermal, three times, area 5 days after injection
[4] = Example 5, same conditions as Example 4

| Sequence | anti-inflammatory effect against injection of patient strains ([1]; each of patient strains 1-3, vs PBS) | P (inflammatory area compared with control group given PBS) ([1]; patient strain 1) | P (inflammatory area compared with control group given PBS) ([1]; patient strain 2) | P (inflammatory area compared with control group given PBS) ([1]; patient strain 3) | P (inflammatory area compared with control group given PBS) (P. acnes (ATCC6919); [2]) | anti-inflammatory effect against inflammation caused by P. acnes (P. acnes (ATCC6919); [3]) | P (inflammatory area compared with control group given PBS) (P. acnes (ATCC6919); [4]) | anti-inflammatory effect against inflammation caused by P. acnes (P. acnes (ATCC6919); [4]) |
| --- | --- | --- | --- | --- | --- | --- | --- | --- |
| AIQEKYGDDRERAG (Propionibacterium acnes) [PepA, residues 90-103 of P. acnes membrane protein AAT84059] | statistically significantly reducing an inflammatory area | 0.0252 | 0.0476 | 0.0237 | 0.00865 | statistically significantly reduced inflammatory area | 0.0012 | statistically significantly reduced inflammatory area |
| GRKPDTNKRSWHRKASR [PepB, reference compound] |  |  |  |  | 1 | do not exhibit the anti-inflammatory effect |  |  |
| IDQVREYRHRDDDDDEDPGEDG [PepC, reference compound] |  |  |  |  | 0.1655 | do not exhibit the anti-inflammatory effect |  |  |
| KDADKDNPTYQKV (Propionibacterium acnes) [PepD, residues 260-272 of P. acnes membrane protein YP_056445] |  |  |  |  |  |  | 0.00175 | statistically significantly reduced inflammatory area |
